Experimental findings from PubChem BioAssay AID652161 (Sanford-Burnham Center for Chemical Genomics, 2013) are described below.

Active and inactive are the calls of the source.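 How the source made its calls: active means IC50 of 25 µM or lower, counted as toxic to worms; inactive means the rest.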

This data set deals with C. elegans VP596, manual health composite score, 20-22 h. Briefly: whole-worm cytotoxicity of SKN-1 inhibitor candidates – whole organism, strain VP596, composite health score, cytotoxicity control for SKN-1 inhibitor project, SAR follow-up (AID 652161).
A word on the IC50: it is the concentration at which inhibition is half-maximal. In the case of `Brc1ccc(-c2nnc(-c3ccco3)o2)cc1`, the IC50 was 12.9 µM. In the case of `CCOc1ccc(-c2nc(-c3cccnc3)no2)cc1` it was 8.88 µM; in that of `Brc1ccc(CSc2nnc(-c3cccnc3)o2)cc1`, 25.2 µM (inactive). In the case of `Fc1ccc(-c2csc(Nc3ccccn3)n2)cc1` it was 7.02 µM; in that of `CCOC(=O)Nc1nc(-c2ccc(F)cc2F)cs1`, 22.9 µM.

As for `Clc1ccccc1-c1nc(-c2ccncc2)no1`, the IC50 is 15.3 µM. Take `O=C(Nc1nc(-c2ccc(Cl)s2)cs1)c1ccco1`: the IC50 was 16.1 µM. The value for `O=C(Nc1nc2c(ccc3ccccc32)s1)c1ccco1` was 20.3 µM; that for `Brc1ccc(-c2nc(-c3ccccc3)no2)o1` was 11.9 µM; that for `Clc1ccccc1-c1nnc(-c2ccccc2Cl)o1` was 20.9 µM. In the case of `Fc1ccc(-c2csc(-c3ccncc3)n2)cc1`, the IC50 is 10.6 µM. For the compound `Clc1ccc(-c2nnc(-c3ccccc3)o2)c(Cl)c1`, the IC50 is 27.9 µM (inactive). The value for `O=C(/C=C/Nc1ccc(F)c(Cl)c1)c1ccco1` was 18.8 µM.

Take `O=C(/C=C/Nc1ccc(F)c(F)c1)c1cccs1`: the IC50 was > 64 µM (inactive). The value for `CCOC(=O)c1c(-c2ccc(-c3ccccc3)cc2)csc1NC(=O)CNCCN(C)C` was > 64 µM (inactive); that for `O=C(/C=C/Nc1ccc(Br)cc1F)c1ccco1` was 14.8 µM; that for `CCOc1cc(CNC2CCCC2)cc(Cl)c1OCc1ccc(F)cc1` was > 64 µM (inactive). In the case of `O=C(Nc1ccc(CN2CCOCC2)cc1)c1cc2ccccc2o1` it was 35.3 µM (inactive). Turning to `O=C(/C=C/c1ccccc1)Nc1ccc(CN2CCOCC2)cc1`, the IC50 is > 64 µM (inactive).

With `c1ccc2oc(SCc3nc4ccccc4s3)nc2c1`, the IC50 is 13.9 µM.

Regarding `Cc1ccc(Nc2nc(-c3cccs3)cs2)nc1`, the IC50 is 27.3 µM (inactive).

Regarding `Fc1ccc(COc2ccc(-c3nnco3)cc2)cc1`, the IC50 was 34.9 µM (inactive).

Take `Brc1ccc(CSc2nnc(-c3ccco3)o2)cc1`: the IC50 is 8.76 µM. `CC(C)c1ccc(C(=O)Nc2ccc(CN3CCOCC3)cc2)cc1`: the IC50 is 14.7 µM. As to `CCOc1cc(CNCCSc2nnnn2C)cc(Br)c1OCc1ccc(F)cc1`, the IC50 is 16 µM. The value for `O=C(Nc1nc(-c2ccc(Cl)s2)cs1)c1cccs1` was > 64 µM (inactive); that for `O=C(/C=C/Nc1ccc(F)cc1F)c1ccco1` was 24.1 µM. As to `COc1ccc(C(=O)Nc2nc(-c3cccs3)cs2)cc1`, the IC50 was > 64 µM (inactive). In the case of `COc1cc(CNC(C)c2ccccc2)cc(Br)c1OCc1ccc(F)cc1` (stereo not drawn) it was > 64 µM (inactive); in that of `c1ccc(Nc2nc(-c3cccs3)cs2)nc1`, 14.9 µM. The value for `c1ccc2sc(SCc3ccc(-c4nnco4)cc3)nc2c1` was 14.5 µM. Regarding `c1ccc(-c2csc(-c3ccncc3)n2)cc1`, the IC50 is 23.9 µM. The value for `Cc1nc2ccccc2cc1OCc1ccc(F)cc1` was 8.59 µM; that for `c1ccc(-c2nc(-c3ccncc3)no2)cc1` was > 64 µM (inactive); that for `COc1cc(CNC(C)(C)CO)cc(Br)c1OCc1ccc(Cl)cc1` was 56.3 µM (inactive).

As to `O=C(Nc1nccs1)c1ccc2ccccc2n1`, the IC50 is 16 µM. For the compound `Cc1ccccc1-c1noc(-c2cccs2)n1`, the IC50 is 7.83 µM.

As for `Cc1ccc(CSc2nnc(-c3ccco3)o2)cc1`, the IC50 is 19.1 µM.

On to `Cc1cc(OCc2cccc(Cl)c2)c(C)cc1CN1CCOCC1`, for which the IC50 is 21 µM. In the case of `O=C(/C=C/c1ccc(Br)cc1)c1ccc(NC2=NCCCS2)cc1` it was 20.1 µM. The value for `Clc1ccc(-c2nnc(-c3ccco3)o2)cc1` was 16.9 µM; that for `CCc1ccc(-c2nc(-c3ccncc3)no2)cc1` was 10.6 µM. In the case of `COc1cc(CNC2CCCC2)cc(Cl)c1OCc1ccc(F)cc1` it was 46.9 µM (inactive). `Cc1oc(-c2ccc(-c3ccccc3)cc2)nc1CN(C)C1CCOC1` (stereo not drawn): the IC50 is > 64 µM (inactive). In the case of `Cc1ccc(-c2noc(-c3cccs3)n2)cc1` it was 10.6 µM; in that of `Cc1ccc2nc(-c3ccc(NC(=S)NC4CC(C)(C)NC(C)(C)C4)cc3)sc2c1`, 62 µM (inactive); in that of `Cc1ccc(N=C/C(C(=O)C(F)(F)F)=C(\O)c2ccco2)cc1Cl`, 27.2 µM (inactive). As to `CSc1cccc(NC(=O)c2cccc3cccnc23)c1`, the IC50 was 47 µM (inactive). The value for `CCOc1cc(CNC2CCCC2)cc(Cl)c1OCc1ccccc1` was > 64 µM (inactive); that for `Clc1ccc(Nc2nc(-c3cccs3)cs2)nc1` was 12.4 µM. In the case of `O=C(Nc1nc(-c2ccccc2)cs1)c1cccs1`, the IC50 was 15 µM. For the compound `O=C(Nc1nc(-c2ccc(Cl)s2)cs1)c1ccccc1`, the IC50 was > 64 µM (inactive). `c1ccc(-c2csc(Nc3ccccn3)n2)cc1`: the IC50 was 6.56 µM. As to `O=C(/C=C/c1cccs1)c1ccc(Br)cc1`, the IC50 was 11.6 µM. The value for `O=C(/C=C/Nc1ccc(F)cc1F)c1cccs1` was 21.4 µM; that for `Fc1ccc(COc2ccc(-c3nnco3)cc2)c(Cl)c1` was 8.11 µM; that for `c1ccc(SCc2cc(-c3ccccc3)no2)cc1` was 11.5 µM. In the case of `O=C(/C=C/Nc1ccccc1F)c1cccs1` it was 35.2 µM (inactive).
